Experimental data: patent publication US4341868A, “Method and test composition for the determination of the substrate for xanthine oxidase” (Kyowa Hakko Kogyo Co., Ltd., priority 1978, dated 1982)
Structures can show the parent of a compound that is named as a salt. Where two headings read alike, the source gives them in different places. Blank lines part the entries; values can stand above or below the compound they belong to.

Tests used:
xanthine oxidase [1] = test: Substrate specificity (formed hydrogen peroxide, Method II); type: biochemical, Enterobacter cloacae; conditions: for Relative activity: activity on xanthine defined as 100, 0.1 ml of 5 mM substrate, 0.25 U/ml enzyme, pH 7.3, 37° C.; for activity of xanthine oxidase on substrate (in words): conclusion from Table 1
Experimental: After completion of the reaction, the absorbancy of the reaction solution is measured at 500 nm. Molecular extinction coefficient of quinoneimine pigment formed in the reaction is 5.33×10^3 (Clinical Chemistry 20, 470, 1974). When a unit of enzyme activity is defined as the activity of enzyme which forms 1 μmol of hydrogen peroxide in one minute at 37° C. and at a pH of 7.3, the unit (U) of xanthine oxidase is as follows:
The same procedures as in Method II are repeated except that 0.25 U/ml xanthine oxidase and 0.1 ml of 5 mM solutions of various substrates are used, and the amount of the formed hydrogen peroxide is determined.

xanthine oxidase [2] = test: Inhibition of xanthine oxidase (Method I); type: biochemical, Enterobacter cloacae; conditions: for inhibition of xanthine oxidase (in words): conclusion from Table 2
Experimental: The reaction is carried out at 37° C. for ten minutes. […] The thus obtained value is defined as OD283. This value corresponds to the amount of uric acid formed.
Since the reaction product, uric acid has a maximum absorption at 283 nm in acidic region and the molecular extinction coefficient is 1.238×10^4 (Analytical Biochemistry 38, 65, 1970), the unit (U) of xanthine oxidase is as follows:
One unit of enzyme activity is defined as the activity of enzyme which forms 1 μmol of uric acid in one minute at 37° C. and at a pH of 7.3.
Xanthine oxidase activity is determined in the same manner as in Method I except that 0.25 U/ml xanthine oxidase solution is used and various enzyme inhibitors are added.

xanthine oxidase [3] = test: Experiment 3: electron acceptor of the present enzyme; type: biochemical, Enterobacter cloacae
Experimental: 0.15 ml of 10 mM xanthine aqueous solution, 1.0 ml of 100 mM tris-hydrochloride buffer (pH 7.3), 0.65 ml of water and 1 ml of various electron acceptors shown in Table 3 are mixed. The mixture and a solution of xanthine oxidase obtained in Example 1 are incubated at 37° C. and then nitrogen gas is introduced into the mixture and the enzyme solution for 3~4 minutes to remove dissolved oxygen.
Then, 0.2 ml of 0.25 U/ml xanthine oxidase is added to 2.8 ml of the reaction mixture to initiate the reaction and the absorbancy is measured every 15 seconds. The values obtained during one minutes of 30 to 90 seconds after the addition of xanthine oxidase is used as data.
When oxygen is used as an acceptor, nitrogen gas is not introduced into the mixture and the reaction product, uric acid obtained using dissolved oxygen is determined by measuring the absorbancy at 295 nm.

[4] = system: xanthine oxidase derived from milk; conditions: ferricyanide 100; cited from earlier work
xanthine oxidase [5] = test: Examples 2 and 3: xanthine oxidase activity with nucleic acid compound added to the medium; type: cell-based, Enterobacter cloacae KY 3066
Experimental: In this example, 40 ml of the medium (pH 7.2) containing 0.5 g/dl yeast extract, 0.5 g/dl corn steep liquor, 0.1 g/dl peptone, 0.05 g/dl KH2 PO4, 0.1 g/dl K2 HPO4, […] and is sterilized at 120° C. for 15 minutes. One loopful of the seed culture of Enterobacter cloacae KY 3066 is inoculated into the medium and culturing is carried out at 30° C. for 48 hours.
The microbial cells are recovered from the culture liquor by centrifugation and are suspended in 20 ml of the buffer. The suspension is subjected to ultrasonic disintegration.

xanthine oxidase [6] = type: biochemical, Enterobacter cloacae
Experimental: As a coloring solution, 0.1 M tris-hydrochloride buffer (pH 7.3) containing 10 mmol/l 4-aminoantipyrine, 10 mmol/l phenol and 490 U/100 ml peroxidase is prepared. […] The absorbancy of the reaction solution is measured at 500 nm.

xanthine oxidase [7] = system: xanthine oxidase
Experimental: The coloring solution is prepared by adding 445 U/100 ml peroxidase to 0.1 M tris-hydrochloride buffer (pH 7.3) containing 10 mmol/l 4-aminoantipyrine and 10 mmol/l phenol.
In this experiment, 40 ml of medium (pH 7.2) comprising hypoxanthine having concentrations indicated in Table 4, 0.5 g/dl yeast extract, 0.5 g/dl corn steep liquor, 0.1 g/dl peptone, 0.05 g/dl KH2 PO4, 0.1 g/dl K2 HPO4 and 0.05 g/dl MgSO4.7H2 O is poured into Sakaguchi flask and is sterilized at 120° C. for 15 minutes.
One loopful of the seed culture of Enterobacter cloacae KY 3066, FERM P 4077, NRRL B-11155 in a slant is inoculated into the medium and culturing is carried out with shaking at 30° C. for 48 hours.
After completion of the culturing, the culture liquor is subjected to centrifugation at 10,000 r.p.m for 15 minutes (hereinafter centrifugation is carried out under this condition) to obtain microbial cells. The thus obtained cells are suspended in 20 ml of 50 mM tris-hydrochloride buffer (pH 8.0) and then disrupted for ten minutes in an ultrasonic disintegration (Ultrasonic Generator KMS-250 type, made by Kubota Seisaku-sho). The resulting disrupted cell suspension is centrifuged to obtain a supernatant. Xanthine oxidase activity of the supernatant is determined according to the Determination Method II and the results are shown in Table 4 below.

[8] = pH 7.3
Experimental: Hypoxanthine is oxidized by the action of the present enzyme and the formed hydrogen peroxide is reacted with a coloring reagent.
The enzyme-containing solution is subjected to reaction at 37° C. and the absorbancy of the reaction solution colored by the formation of quinoneimine derived from hydrogen peroxide is measured at 500 nm at regular intervals.
The solution is subjected to reaction at 37° C. and the absorbancy of the reaction solution is measured at 293 nm at regular intervals.

Compound: Nc1ncnc2nc[nH]c12 [Adenine]
- Relative activity (xanthine oxidase [1]): 0%

Compound: Nc1ncnc2c1ncn2[C@@H]1O[C@H](CO)[C@@H](O)[C@H]1O [Adenosine]
- Relative activity (xanthine oxidase [1]): 2.5%

Compound: O=[N+]([O-])[O-].[Ag+] [AgNO3]
- inhibition of xanthine oxidase (in words) (xanthine oxidase [2]): inhibitors of xanthine oxidase
- Inhibition rate (xanthine oxidase [2]; inhibitor 1 × 10^-4 M): 97.8%
- Inhibition rate (xanthine oxidase [2]; inhibitor 1 × 10^-5 M): 98.2%
- Inhibition rate (xanthine oxidase [2]; inhibitor 1 × 10^-6 M): 54.8%
- Inhibition rate (xanthine oxidase [2]; inhibitor 1 × 10^-7 M): 0%

Compound: O=C1C(Cl)=CC(=Nc2ccc(O)cc2)C=C1Cl [DCPIP, 2,6-sodium salt of dichlorphenol indophenol]
- Relative activity (xanthine oxidase [3]; acceptor 0.04 mM, 600 nm): 9.2%
- Relative activity [4]: 35

Compound: Nc1nc2c(ncn2[C@@H]2O[C@H](COP(=O)(O)O)[C@@H](O)[C@H]2O)c(=O)[nH]1 [Disodium 2,5'-guaninate]
- Xanthine oxidase (xanthine oxidase [5]; amount of addition 0.81 g/dl): 0.30 U/ml

Compound: Nc1nc2nc[nH]c2c(=O)[nH]1 [Guanine]
- Relative activity (xanthine oxidase [1]): 53.3%
- activity of xanthine oxidase on substrate (in words) (xanthine oxidase [1]): strong activity
- Xanthine oxidase (xanthine oxidase [5]; amount of addition 0.3 g/dl): 0.14 U/ml

Compound: O=c1[nH]cnc2nc[nH]c12 [Hypoxanthine]
- Relative activity (xanthine oxidase [1]): 92.3%
- activity of xanthine oxidase on substrate (in words) (xanthine oxidase [1]): strong activity
- [B]/[A] (formed hydrogen peroxide / substrate) (xanthine oxidase [6]): 1.80
- Amount of formed hydrogen peroxide [B] (xanthine oxidase [6]; pH 7.3): 0.27 µmol
- Xanthine oxidase activity (xanthine oxidase [7]; hypoxanthine 0.1 g/dl): 20.0 U/dl
- Xanthine oxidase activity (xanthine oxidase [7]; hypoxanthine 0.2 g/dl): 31.2 U/dl
- Xanthine oxidase activity (xanthine oxidase [7]; hypoxanthine 0.3 g/dl): 47.3 U/dl
- Xanthine oxidase activity (xanthine oxidase [7]; hypoxanthine 0.5 g/dl): 48.4 U/dl
- Xanthine oxidase activity (xanthine oxidase [7]; hypoxanthine 1.0 g/dl): 55.2 U/dl
- Xanthine oxidase activity (xanthine oxidase [7]; hypoxanthine 3.0 g/dl): 49.0 U/dl

Compound: O=C([O-])c1cc[c]([Hg][Cl])cc1.[Na+] [PCMB, Sodium salt of pchloromercuribenzoic acid]
- inhibition of xanthine oxidase (in words) (xanthine oxidase [2]): inhibitors of xanthine oxidase
- Inhibition rate (xanthine oxidase [2]; inhibitor 1 × 10^-4 M): 76.6%
- Inhibition rate (xanthine oxidase [2]; inhibitor 1 × 10^-5 M): 34.7%
- Inhibition rate (xanthine oxidase [2]; inhibitor 1 × 10^-6 M): 0%

Compound: Cn1c(=O)c2[nH]cnc2n(C)c1=O [Theophylline]
- Relative activity (xanthine oxidase [1]): 0%

Compound: O=c1[nH]c(=O)c2[nH]cnc2[nH]1 [Xanthine]
- Relative activity (xanthine oxidase [1]): 100%
- activity of xanthine oxidase on substrate (in words) (xanthine oxidase [1]): strong activity
- Amount of formed hydrogen peroxide [B] (xanthine oxidase [6]; substrate 0.15 μmol, 0.93 U xanthine oxidase, pH 7.3, 37° C., 20 minutes): 0.14 µmol
- [B]/[A] (formed hydrogen peroxide / substrate) (xanthine oxidase [6]; substrate 0.15 μmol, 37° C., 20 minutes): 0.93
- Xanthine oxidase (xanthine oxidase [5]; amount of addition 0.3 g/dl): 0.13 U/ml

Compound: Cytochrome C: electron acceptor
- Relative activity (xanthine oxidase [3]; acceptor 0.1 mM, 550 nm): 0%

Compound: xanthine oxidase derived from milk: xanthine oxidase derived from milk (product of Boehringer Mannheim Co.)
- stability of pigment (in words) [8]: then decrease in spite of the continuous formation of uric acid

Second part, led by results:

- Relative activity (xanthine oxidase [1]): 88.5%
- activity of xanthine oxidase on substrate (in words) (xanthine oxidase [1]): strong activity
Compound: Oc1ncc2[nH]cnc2n1 [2-Hydroxypurine]

- Relative activity (xanthine oxidase [1]): 4.4%
Compound: Sc1ncnc2nc[nH]c12 [6-mercaptopurine]

- inhibition of xanthine oxidase (in words) (xanthine oxidase [2]): inhibitors of xanthine oxidase
- Inhibition rate (xanthine oxidase [2]; inhibitor 1 × 10^-4 M): 96.3%
- Inhibition rate (xanthine oxidase [2]; inhibitor 1 × 10^-5 M): 79.6%
- Inhibition rate (xanthine oxidase [2]; inhibitor 1 × 10^-6 M): 12.9%
- Inhibition rate (xanthine oxidase [2]; inhibitor 1 × 10^-7 M): 0%
Compound: O.O.[Cl][Cu][Cl] [CuCl2.2H2 O]

- inhibition of xanthine oxidase (in words) (xanthine oxidase [2]): inhibitors of xanthine oxidase
- Inhibition rate (xanthine oxidase [2]; inhibitor 1 × 10^-4 M): 90.5%
- Inhibition rate (xanthine oxidase [2]; inhibitor 1 × 10^-5 M): 53.5%
- Inhibition rate (xanthine oxidase [2]; inhibitor 1 × 10^-6 M): 2.2%
Compound: [Cl][Cu] [CuCl]

- inhibition of xanthine oxidase (in words) (xanthine oxidase [2]): inhibitors of xanthine oxidase
- Inhibition rate (xanthine oxidase [2]; inhibitor 1 × 10^-4 M): 92.3%
- Inhibition rate (xanthine oxidase [2]; inhibitor 1 × 10^-5 M): 0%
Compound: O.O.O.O.O.O.O.O=S(=O)([O-])[O-].[Fe+2] [FeSO4.7H2 O]

- Relative activity (xanthine oxidase [1]): 0%
Compound: Nc1nc2c(ncn2[C@@H]2O[C@H](CO)[C@@H](O)[C@H]2O)c(=O)[nH]1 [Guanosine]

- Relative activity (xanthine oxidase [1]): 0%
Compound: OC[C@H]1O[C@@H](n2cnc3c(O)ncnc32)[C@H](O)[C@@H]1O [Inosine]
- Xanthine oxidase (xanthine oxidase [5]; amount of addition 0.54 g/dl): 0.20 U/ml

- inhibition of xanthine oxidase (in words) (xanthine oxidase [2]): inhibitors of xanthine oxidase
- Inhibition rate (xanthine oxidase [2]; inhibitor 1 × 10^-3 M): 88.9%
- Inhibition rate (xanthine oxidase [2]; inhibitor 1 × 10^-4 M): 82.7%
- Inhibition rate (xanthine oxidase [2]; inhibitor 1 × 10^-5 M): 61.7%
- Inhibition rate (xanthine oxidase [2]; inhibitor 1 × 10^-6 M): 0%
Compound: O=C1O[C@H]([C@@H](O)CO)C(O)=C1O [L-ascorbic acid]

- Relative activity (xanthine oxidase [1]): 0%
Compound: NC(=O)C1=CN([C@@H]2O[C@H](COP(=O)(O)OP(=O)(O)OC[C@H]3O[C@@H](n4cnc5c(N)ncnc54)[C@H](O)[C@@H]3O)[C@@H](O)[C@H]2O)C=CC1 [NADH]

- Relative activity (xanthine oxidase [3]; acceptor 0.1 mM, 340 nm): 0%
Compound: NC(=O)c1ccc[n+]([C@@H]2O[C@H](COP(=O)([O-])OP(=O)(O)OC[C@H]3O[C@@H](n4cnc5c(N)ncnc54)[C@H](OP(=O)(O)O)[C@@H]3O)[C@@H](O)[C@H]2O)c1 [NADP]

- Relative activity (xanthine oxidase [3]; acceptor 0.1 mM, 340 nm): 0%
Compound: NC(=O)c1ccc[n+]([C@@H]2O[C@H](COP(=O)([O-])OP(=O)(O)OC[C@H]3O[C@@H](n4cnc5c(N)ncnc54)[C@H](O)[C@@H]3O)[C@@H](O)[C@H]2O)c1 [NAD]
- Relative activity [4]: < 1.3

- acceptor of the present enzyme (in words) (xanthine oxidase [3]): best acceptor
- Relative activity (xanthine oxidase [3]; dissolved oxygen, 295 nm): 100%
Compound: O=O [Oxygen]
- Relative activity [4]: 83

- Relative activity (xanthine oxidase [1]): 23.3%
- activity of xanthine oxidase on substrate (in words) (xanthine oxidase [1]): strong activity
Compound: c1ncc2[nH]cnc2n1 [Purine]

- Relative activity (xanthine oxidase [1]): 0%
Compound: Cn1cnc2c1c(=O)[nH]c(=O)n2C [Theobromine]

- Relative activity (xanthine oxidase [1]): 0%
Compound: O=c1[nH]c(=O)c2[nH]c(=O)[nH]c2[nH]1 [Uric acid]

- Relative activity (xanthine oxidase [1]): 0%
Compound: O=c1[nH]c(=O)c2ncn([C@@H]3O[C@H](CO)[C@@H](O)[C@H]3O)c2[nH]1 [Xanthosine]
- Xanthine oxidase (xanthine oxidase [5]; amount of addition 0.57 g/dl): 0.20 U/ml
